One experiment concerns the target T1, hTAS2R16 (Homo sapiens, UniProt Q9NYV7).
T1 construct: expressed in transfected cells
T1 sequence (Q9NYV7 1-291): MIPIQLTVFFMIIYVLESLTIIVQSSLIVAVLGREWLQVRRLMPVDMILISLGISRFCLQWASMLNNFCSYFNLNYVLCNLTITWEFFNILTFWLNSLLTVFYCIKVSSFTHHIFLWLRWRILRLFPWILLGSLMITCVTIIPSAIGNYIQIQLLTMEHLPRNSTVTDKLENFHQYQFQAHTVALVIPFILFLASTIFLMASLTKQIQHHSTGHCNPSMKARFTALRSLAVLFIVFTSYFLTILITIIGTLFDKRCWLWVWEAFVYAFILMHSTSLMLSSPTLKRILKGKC
The experiment in a line: Calcium imaging of hTAS2R16 transfected cells stimulated with salicin, specificity test. It is filed as cell-based. As to conditions: 10 mM DMTU, 5 mM DETU or 0.1 mM MBI, FIG. 4. An excerpt: (§1) Human TAS2R38 cDNAs encoding the PAV form of the receptor was fused with a plasma membrane-targeting sequence of the rat somatostatin type 3 receptor at the N terminus of the recombinant polypeptide and a herpes simplex virus glycoprotein D (HSV) epitope at its C terminus (Bufe B., et al. (2002) Nat Genet 32:397-401). The constructs were transiently transfected into human embryonic kidney (HEK)-293T cells that stably express the chimeric G-protein subunit G16gust44 (Ueda T., et al. (2003) J Neurosci 23:7376-7380) using Lipofectamine 2000 (Invitrogen). They were then seeded at a density of ˜20-30% and transfected at ˜60% confluency in 96-well microtiter plate (Greiner) coated with 10 μg/ml Poly-D-lysine (Sigma-Aldrich). Calcium imaging experiments using an automated fluorometric imaging plate reader (FLIPR) (Molecular Devices) have been performed 24-32 h later essentially as described previously (Bufe B., et al. (2005) Curr. Biol. 15, 322-327). Tastants (Sigma-Aldrich) were dissolved and administered in the following solution: 130 mM NaCl, 5 mM KCl, 10 mM HEPES, 2 mM CaCl2, and 10 mM glucose, pH 7.4. Data were averaged over several independent experiments and processed with SigmaPlot (SPSS). For calculation of dose-response curves, the peak fluorescence responses after addition of compounds were corrected for and normalized to background fluorescence (ΔF/F=(F−F0)/F0), and baseline noise was subtracted.
(§2) In contrast to the observed effects on TAS2R38, the response of cells expressing hTAS2R16 or mTas2r5 to their cognate ligands salicin or cycloheximide was not altered by any of the three TAS2R38 antagonists in concentrations that inhibited response of TAS2R38 (FIG. 4).

Experiment [1] addresses T2, TAS2R38 (Homo sapiens, UniProt P59533, A49P/I296V).
T2 construct: expressed in transfected cells; host or cells: HEK-293T cells stably expressing the chimeric G-protein subunit G16gust44
T2 sequence (P59533 1-333 A49P/I296V): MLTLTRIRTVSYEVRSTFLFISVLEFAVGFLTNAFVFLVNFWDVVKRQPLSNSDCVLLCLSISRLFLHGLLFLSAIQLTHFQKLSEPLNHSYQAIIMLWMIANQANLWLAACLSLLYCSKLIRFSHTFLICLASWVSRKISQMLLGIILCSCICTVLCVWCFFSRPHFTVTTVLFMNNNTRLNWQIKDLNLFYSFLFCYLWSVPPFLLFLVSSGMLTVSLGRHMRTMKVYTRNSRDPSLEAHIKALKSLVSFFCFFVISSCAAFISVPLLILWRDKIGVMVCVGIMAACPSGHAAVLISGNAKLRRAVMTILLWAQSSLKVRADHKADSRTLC
The experiment in a line: Calcium imaging (FLIPR) of TAS2R38-PAV transfected HEK-293T G16gust44 cells, activation by compound alone. Type of experiment: cell-based.
Text: as §1
During the structure-function-analysis of TAS2R38 agonists we identified and tested various compounds that contain an N—C═S moiety, which is a hallmark of TAS2R38 agonists. […] Two other compounds, dimethylthiourea and mercaptobenzimidazole that also have an N—C═S moiety (FIG. 1) could activate the receptor only at low to concentrations (EC50 of 0.5 mM for dimethylthiourea and 1.0 μM for mercaptobenzimidazole). Application of dimethylthiourea in concentrations above 3 mM led to a dose dependant reduction of the signal amplitude (FIG. 2).

The next experiment deals with T3, mTas2r5 (Mus musculus, UniProt Q9JKT4).
T3 construct: expressed in transfected cells
T3 sequence (Q9JKT4 1-300): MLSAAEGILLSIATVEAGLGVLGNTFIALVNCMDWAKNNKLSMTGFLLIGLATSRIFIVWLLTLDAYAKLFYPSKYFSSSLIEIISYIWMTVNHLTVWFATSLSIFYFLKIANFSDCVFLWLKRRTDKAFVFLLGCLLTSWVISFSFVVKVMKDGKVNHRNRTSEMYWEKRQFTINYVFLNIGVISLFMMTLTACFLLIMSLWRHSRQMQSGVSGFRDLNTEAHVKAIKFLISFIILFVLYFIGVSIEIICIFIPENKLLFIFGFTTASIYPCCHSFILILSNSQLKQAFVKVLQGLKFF
The experiment in a line: Calcium imaging of mTas2r5 transfected cells stimulated with cycloheximide, specificity test. It is filed as cell-based, murine. The following applies: 10 mM DMTU, 5 mM DETU or 0.1 mM MBI, FIG. 4.
Text: as §1, §2

In experiment [2] the target is T2, TAS2R38. The experiment in a line: Calcium imaging (FLIPR) of TAS2R38 transfected cells, antagonists applied as mixture with TAS2R38 agonists. As to conditions: for inhibition of the responses of TAS2R38 agonists: mixture with 0.03 mM PROP, 0.03 mM PTC or 1 mM MET, 20 mM DMTU, 5 mM DETU or 0.1 mM MBI, FIG. 3. Type of experiment: cell-based.
Text: as §1
To test whether dimethylthiourea, diethylthiourea and mercaptobenzimidazole are capable of inhibiting the response of other TAS2R38 agonists we next tested them as mixtures with the structurally divergent TAS2R38 agonists propylthiouracil, phenylthiourea and methimidazole.
To further investigate the mechanism of the inhibition of TAS2R38 we examined the effect of increasing diethylthiourea concentrations on the dose response curves of propylthiouracil and phenylthiourea (FIG. 5). […] Thus, the likeliest explanation for the observed right shift in the EC50 values caused by negative cooperativity of the inhibitor binding site on the agonist binding site of PROP and PTC.

The mark [3] stands for this setting: TAS2R38-PAV transfected cells, compound alone, FIG. 2, read-out: EC50 (activation of the receptor).

Molecules are shown by their SMILES.

By EC50 is commonly meant the concentration that produces a half-maximal response.

Consider `CCNC(=S)NCC` [diethylthiourea, N,N′-diethylthiourea], for which the “effect on response of hTAS2R16 expressing cells to salicin” value (shortened to “effect on response … to salicin”) at hTAS2R16 is “not altered”. For the same compound, on TAS2R38 [1] (TAS2R38-PAV transfected cells, compound alone, FIG. 2), the “activation of the receptor” value is given as “did not activate the receptor at any tested concentration”. In addition, the “effect on response of mTas2r5 expressing cells to cycloheximide” value (shortened to “effect on response … to cycloheximide”) on mTas2r5 is “not altered”. In addition, the “effect on signal amplitudes of the agonists” value at TAS2R38 [2] (increasing diethylthiourea concentrations, not abolished by increasing agonist concentrations) was “pronounced reduction of the signal amplitudes”. Besides, on TAS2R38 [2], the “inhibition of the responses of TAS2R38 agonists” value (shortened to “inhibition”) is “inhibited the responses of all tested agonist”.
Take `CNC(=S)NC` [dimethylthiourea, N,N′-dimethylthiourea]: at hTAS2R16, the “effect on response … to salicin” value is given as “not altered”. On TAS2R38 [1], the “concentrations at which the compound acts as agonist of hTAS2R38” value is “below 3 mM”. Also, the EC50 on TAS2R38 [1] (setting [3]) was found to be 500 µM. Moreover, on TAS2R38 [1] (TAS2R38 expressing cells, compound alone, FIG. 2), the “concentrations leading to a dose dependant reduction of the signal amplitude” value was “above 3 mM”. Besides, on mTas2r5, the “effect on response … to cycloheximide” value is on record as “not altered”. In addition, the “inhibition” value on TAS2R38 [2] is “inhibited the responses of all tested agonist”.
`Sc1nc2ccccc2[nH]1` [mercaptobenzimidazole, 2-mercaptobenzimidazole]: the “effect on response … to salicin” value on hTAS2R16 is “not altered”. Moreover, on TAS2R38 [1], the “concentrations at which the compound acts as agonist of hTAS2R38” value was “below 0.01 mM”. Further, the EC50 at TAS2R38 [1] (setting [3]) is 1 µM. Besides, the “concentrations that pronouncedly reduced the response of TAS2R38 receptor expressing cells” value on TAS2R38 [1] (compound alone, FIG. 2) was “above 10 μM”. Also, the “effect on response … to cycloheximide” value on mTas2r5 is given as “not altered”. For the same compound, on TAS2R38 [2], the “inhibition” value is given as “inhibited the responses of all tested agonist”.
For the compound `NC(=S)Nc1ccccc1` [phenylthiourea, phenylthiocarbamide, reference compound], the half-maximal effective concentration (EC50) at TAS2R38 [1] (EC50 (result obtained for propylthiouracil), alone, TAS2R38 transfected cells, FIG. 5) was 1.1 ± 0.8 µM; on TAS2R38 [1] (EC50 of phenylthiourea, alone, TAS2R38 transfected cells, FIG. 5), 1.4 ± 0.9 µM; on TAS2R38 [2] (EC50 (result obtained for propylthiouracil), +0.25 mM diethylthiourea) it was 3.4 ± 2.5 µM; on TAS2R38 [2] (EC50 (result obtained for propylthiouracil), +0.5 mM diethylthiourea), 6.3 ± 3.9 µM; at TAS2R38 [2] (EC50 of phenylthiourea, +0.25 mM diethylthiourea), 2.8 ± 0.8 µM; at TAS2R38 [2] (EC50 of phenylthiourea, +0.5 mM diethylthiourea) it was 4.8 ± 1.8 µM.

For the origin of these results see patent US8158442B2, “Antagonists of bitter taste receptors and uses thereof” (Deutsches Institut Fuer Ernaehrungsforschung …, priority 2007, dated 2012).
